Source: patent US8183414B2, “N-(1-phenyl-2-arylethyl)-4,5-dihydro-2H-pyrrol-5-amine compounds as subtype selective modulators of ALPHA2B or ALPHA2B and ALPHA2C adrenoceptors” (Allergan, Inc., priority 2008, dated 2012)
Like-named read-outs stand apart in the source and are kept apart here.

Columns and labels:
Type in all cases: cell-based
α2C adrenergic receptor = biological target: T1, α2C adrenergic receptor (Homo sapiens, UniProt P18825); experiment: RSAT (Receptor Selection and Amplification Technology) assay, α2C; settings: for EC50: cells expressing the receptor alone, receptor-mediated growth response, NA = not active; for RSAT Rel Eff α2C: relative efficacy compared to a standard full agonist
T1 construct: expressed in transfected cells
T1 sequence (P18825 1-462): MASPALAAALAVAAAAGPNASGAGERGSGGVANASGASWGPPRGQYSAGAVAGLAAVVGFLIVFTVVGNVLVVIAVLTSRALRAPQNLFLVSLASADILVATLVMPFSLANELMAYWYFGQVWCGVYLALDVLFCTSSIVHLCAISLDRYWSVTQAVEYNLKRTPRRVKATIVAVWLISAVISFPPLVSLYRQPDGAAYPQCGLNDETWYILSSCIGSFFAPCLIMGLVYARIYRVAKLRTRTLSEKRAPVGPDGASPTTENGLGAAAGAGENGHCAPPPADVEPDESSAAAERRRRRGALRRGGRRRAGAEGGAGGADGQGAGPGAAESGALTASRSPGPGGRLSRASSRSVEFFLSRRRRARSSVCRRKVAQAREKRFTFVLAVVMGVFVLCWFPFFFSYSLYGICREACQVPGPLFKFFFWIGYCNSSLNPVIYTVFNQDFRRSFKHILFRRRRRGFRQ
Protocol: (§1) Cells expressing each of the alpha-2 adrenergic receptors alone were incubated with the various compounds and a receptor-mediated growth response was measured.

α2B adrenergic receptor = biological target: T2, α2B adrenergic receptor (Homo sapiens, UniProt P18089); experiment: RSAT (Receptor Selection and Amplification Technology) assay, α2B; settings: for EC50 / RSAT EC50 α2B: cells expressing the receptor alone, receptor-mediated growth response, NA = not active; for RSAT Rel Eff α2B: relative efficacy compared to a standard full agonist
T2 construct: expressed in transfected cells
T2 sequence (P18089 1-450): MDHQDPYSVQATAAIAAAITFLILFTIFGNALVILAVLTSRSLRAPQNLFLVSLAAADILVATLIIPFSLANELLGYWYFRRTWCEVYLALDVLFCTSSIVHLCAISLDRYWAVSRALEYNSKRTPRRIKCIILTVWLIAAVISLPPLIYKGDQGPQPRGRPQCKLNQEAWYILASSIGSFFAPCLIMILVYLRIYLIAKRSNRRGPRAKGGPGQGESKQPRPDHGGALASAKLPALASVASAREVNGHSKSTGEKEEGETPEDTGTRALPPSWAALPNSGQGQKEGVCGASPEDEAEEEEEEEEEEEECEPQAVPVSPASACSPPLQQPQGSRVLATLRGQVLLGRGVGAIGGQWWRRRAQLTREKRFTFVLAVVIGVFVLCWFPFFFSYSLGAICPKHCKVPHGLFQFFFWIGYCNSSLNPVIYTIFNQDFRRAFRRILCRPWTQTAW
Protocol: as §1

α2A adrenergic receptor = biological target: T3, α2A adrenergic receptor (Homo sapiens, UniProt P08913); experiment: RSAT (Receptor Selection and Amplification Technology) assay, α2A
T3 construct: expressed in transfected cells
T3 sequence (P08913 1-465): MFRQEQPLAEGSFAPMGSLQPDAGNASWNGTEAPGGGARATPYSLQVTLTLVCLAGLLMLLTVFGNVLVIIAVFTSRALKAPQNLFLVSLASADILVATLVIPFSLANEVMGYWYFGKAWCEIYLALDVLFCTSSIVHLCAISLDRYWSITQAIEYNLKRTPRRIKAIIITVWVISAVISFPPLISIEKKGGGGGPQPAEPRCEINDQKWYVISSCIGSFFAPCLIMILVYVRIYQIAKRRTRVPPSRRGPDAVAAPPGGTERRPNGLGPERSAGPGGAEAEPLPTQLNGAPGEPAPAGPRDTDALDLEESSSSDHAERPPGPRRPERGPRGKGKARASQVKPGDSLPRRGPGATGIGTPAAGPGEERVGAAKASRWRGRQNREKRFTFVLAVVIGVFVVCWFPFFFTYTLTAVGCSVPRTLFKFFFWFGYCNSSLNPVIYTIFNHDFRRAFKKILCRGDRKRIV
Protocol: Novel compounds having this general structure were synthesized and tested for alpha adrenergic activity using the Receptor Selection and Amplification Technology (RSAT) assay (Messier et. al., 1995, Pharmacol. Toxicol. 76, pp. 308-311). Cells expressing each of the alpha-2 adrenergic receptors alone were incubated with the various compounds and a receptor-mediated growth response was measured. The compounds activity is described as its EC50 and relative efficacy compared to a standard full agonist.

EC50 (α2C adrenergic receptor) [nM]	RSAT Rel Eff α2C (α2C adrenergic receptor)	EC50 (α2B adrenergic receptor; read-out: RSAT EC50 α2B) [nM]	RSAT Rel Eff α2B (α2B adrenergic receptor)	Structure (SMILES)	other results
19.6	(0.43)	3.1	(0.93)	Cc1cccc(C(Cc2ccncc2)NC2=NCCC2)c1C (single isomer, unassigned) [Compound 18]	–
–	–	210	(0.58)	Cc1cccc(C(Cc2ccncc2)NC2=NCCC2)c1C (single isomer, unassigned) [Compound 19]	–
48.4	(0.59)	8.9	(1.25)	Clc1cccc(C(Cc2ccncc2)NC2=NCCC2)c1Cl (centres unmarked) [Compound 1]	–
84.8	(0.37)	8.7	(1.04)	Cc1cccc(C(Cc2ccncc2)NC2=NCCC2)c1C (centres unmarked) [Compound 2]	–
–	–	10.8	(0.94)	Fc1c(Cl)cccc1C(Cc1ccncc1)NC1=NCCC1 (centres unmarked) [Compound 5]	–
–	–	2.9	(0.72)	Cc1cccc(C(Cc2ccccc2)NC2=NCCC2)c1C (centres unmarked) [Compound 6]	–
–	–	11.6	(0.71)	Clc1cccc(C(Cc2ccccc2)NC2=NCCC2)c1 (centres unmarked) [Compound 8]	–
12.9	(0.36)	4	(0.97)	COc1cccc(CC(NC2=NCCC2)c2cccc(Cl)c2Cl)c1 (centres unmarked) [Compound 13]	–
6.3	(0.36)	8.6	(0.96)	Fc1c(Cl)cccc1C(Cc1ccccc1)NC1=NCCC1 (centres unmarked) [Compound 14]	–
–	–	12.8	(0.70)	Cc1c(F)cccc1CC(NC1=NCCC1)c1cccc(Cl)c1Cl (centres unmarked) [Compound 15]	–
12.5	(0.35)	10.5	(1.04)	Clc1ccc(Cl)c(CC(NC2=NCCC2)c2cccc(Cl)c2Cl)c1 (centres unmarked) [Compound 16]	–
–	–	19.5	(0.73)	Fc1cccc(Cl)c1CC(NC1=NCCC1)c1cccc(Cl)c1Cl (centres unmarked) [Compound 17]	–
17.1	(0.46)	2.2	(1.18)	Clc1cc(Cl)cc(CC(NC2=NCCC2)c2cccc(Cl)c2Cl)c1 (centres unmarked) [Compound 20]	–
39.6	(0.34)	59.2	(0.81)	c1ccc(C(Cc2ccncc2)NC2=NCCC2)cc1 (centres unmarked) [Compound 21]	–
–	–	57	(0.69)	Clc1cccc(C(CCc2ccccc2)NC2=NCCC2)c1Cl (centres unmarked) [Compound 23]	–
–	–	81.7	(0.74)	c1ccc(C(Cc2cccnc2)NC2=NCCC2)cc1 (centres unmarked) [Compound 25]	–
–	–	8.6	(0.93)	Clc1ccc(CC(NC2=NCCC2)c2cccc(Cl)c2Cl)cc1Cl (centres unmarked) [Compound 26]	–
–	–	–	(1.04)	Cc1cccc(C(Cc2cccnc2)NC2=NCCC2)c1C (centres unmarked) [Compound 27]	RSAT EC50 α2B (α2B adrenergic receptor): Potent
–	–	–	(1.19)	Clc1cccc(C(Cc2cccnc2)NC2=NCCC2)c1Cl (centres unmarked) [Compound 28, N-(1-(2,3-dichlorophenyl)-2-(pyridin-3-yl)ethyl)-3,4-dihydro-2H-pyrrol-5-amine]	RSAT EC50 α2B (α2B adrenergic receptor): Potent
–	–	–	(1.09)	Clc1cccc(C(Cc2cccnc2Cl)NC2=NCCC2)c1 (centres unmarked) [Compound 30]	RSAT EC50 α2B (α2B adrenergic receptor): Potent
–	–	11.2	(0.92)	Cc1c(Br)cncc1CC(NC1=NCCC1)c1cccc(Cl)c1 (centres unmarked) [Compound 32]	–
–	–	19.9	(0.91)	Cc1cncc(CC(NC2=NCCC2)c2cccc(Cl)c2)c1C (centres unmarked) [Compound 33]	–
–	–	5.1	(0.85)	Cc1cccc(C(Cc2cncc(C)c2C)NC2=NCCC2)c1 (centres unmarked) [Compound 34]	–

Structure (SMILES)	EC50 (α2C adrenergic receptor) [nM]	RSAT Rel Eff α2C (α2C adrenergic receptor)	EC50 (α2B adrenergic receptor; read-out: RSAT EC50 α2B) [nM]	RSAT Rel Eff α2B (α2B adrenergic receptor)	other results
c1ccc(CC(NC2=NCCC2)c2ccccc2)cc1 (centres unmarked) [Compound 3]	14.1	(0.36)	21.3	(0.63)	–
Clc1ccccc1C(Cc1ccncc1)NC1=NCCC1 (centres unmarked) [Compound 4]	10.3	(0.56)	38.4	(0.57)	–
Clc1cccc(C(Cc2ccccc2)NC2=NCCC2)c1Cl (centres unmarked) [Compound 7]	–	–	6.6	(0.88)	–
Cc1ccccc1CC(NC1=NCCC1)c1cccc(Cl)c1 (centres unmarked) [Compound 9]	2.8	–	3.2	(0.62)	–
Clc1ccccc1C(Cc1ccccc1)NC1=NCCC1 (centres unmarked) [Compound 10]	13.3	(0.37)	12	(0.51)	–
Fc1ccc(CC(NC2=NCCC2)c2cccc(Cl)c2Cl)cc1 (centres unmarked) [Compound 11]	–	–	8	(0.80)	–
Clc1cccc(C(Cc2ccccc2Br)NC2=NCCC2)c1Cl (centres unmarked) [Compound 12]	–	–	8.7	(0.96)	–
Clc1ccc(CC(NC2=NCCC2)c2cccc(Cl)c2Cl)c(Cl)c1 (centres unmarked) [Compound 22]	–	–	7.1	(1.03)	–
c1ccc(C(Cc2ccccn2)NC2=NCCC2)cc1 (centres unmarked) [Compound 24]	–	–	214	(0.44)	–
Cc1cncc(CC(NC2=NCCC2)c2cccc(Cl)c2)c1 (centres unmarked) [Compound 29]	29.8	(0.36)	–	(1.1)	EC50 (α2A adrenergic receptor; cells expressing the receptor alone, receptor-mediated growth response, NA = not active): 293 nM; RSAT Rel Eff α2A (α2A adrenergic receptor; relative efficacy compared to a standard full agonist): (0.31); RSAT EC50 α2B (α2B adrenergic receptor): Potent
Clc1cccc(C(Cc2ccc(Cl)nc2)NC2=NCCC2)c1 (centres unmarked) [Compound 31]	–	–	–	(0.84)	EC50 (α2B adrenergic receptor; RSAT EC50 α2B): 67.2 nM
